From article PMC8658804, “Small Molecule CD38 Inhibitors: Synthesis of 8-Amino-N1-Inosine 5′-Monophosphate, Analogues and Early Structure-Activity Relationship” (Molecules (Basel, Switzerland), 2021)
“Also recorded” adds a separate entry of the source. Like-named read-outs stand apart in the source and are kept apart here.

What was measured:
T-cells = test system: T-cells; set-up: method as in PMID 12932045, PMID 16967053; settings: compared with cADPR; cited from earlier work
CD38 [1] = molecular target: T1, CD38 (Homo sapiens, UniProt P28907); settings: N1-IMP fragments and 8-NH2-N1-cIDPR from earlier work; read-out: IC50, inhibition of CD38-catalyzed cADPR hydrolysis; cited from earlier work
T1 construct: incubating 1 mM cADPR with 2 mg/mL of CD38 for 10 min
T1 sequence (P28907 1-300): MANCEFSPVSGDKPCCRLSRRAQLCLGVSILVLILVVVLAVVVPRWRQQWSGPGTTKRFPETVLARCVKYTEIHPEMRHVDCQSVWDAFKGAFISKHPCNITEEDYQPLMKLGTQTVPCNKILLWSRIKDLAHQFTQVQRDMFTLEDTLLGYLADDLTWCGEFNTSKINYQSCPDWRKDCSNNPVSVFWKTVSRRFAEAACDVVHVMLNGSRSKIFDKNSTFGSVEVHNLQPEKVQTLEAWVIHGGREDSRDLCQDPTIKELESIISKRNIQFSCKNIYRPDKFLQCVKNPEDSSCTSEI

[2] = molecular target: T2, shCD38 (CD38 catalytic domain) (Homo sapiens, UniProt P28907); assay: Ligand hydrolysis by high concentrations of shCD38, monitored by RP-HPLC; format: biochemical; settings: 1 mM ligand, 4 mg/mL shCD38
T2 construct: high concentrations of CD38 catalytic domain (shCD38) present in crystallography media
T2 sequence (P28907 43-300 limits assumed): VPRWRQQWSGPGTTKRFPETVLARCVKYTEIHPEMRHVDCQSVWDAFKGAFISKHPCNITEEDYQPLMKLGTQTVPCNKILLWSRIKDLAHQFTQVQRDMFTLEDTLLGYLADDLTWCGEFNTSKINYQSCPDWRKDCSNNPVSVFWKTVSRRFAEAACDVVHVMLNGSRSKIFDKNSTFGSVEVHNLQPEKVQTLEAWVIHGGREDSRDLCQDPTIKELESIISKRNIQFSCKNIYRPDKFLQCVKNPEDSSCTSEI
Experimental: Indeed, 8-NH2-N9-butyl-cIDPR (6, Figure 2) was captured as the hydrolyzed product in the crystal structure with shCD38. […] Incubation of 11, 8-NH2-N1-IMP (1 mM final concentration) with 4 mg/mL shCD38 was monitored using RP-HPLC. The peak corresponding to 8-NH2-N1-IMP (RT = 10.5 min) reduced in intensity over time, alongside the appearance of a new peak (RT = 2.0 min) that was characteristic of an 8-amino substituted hypoxanthine analog (See Supplementary Information, Figure S1).
HPLC studies were carried out as previously described.[36] Briefly, the solution containing shCD38 was adjusted to the desired concentration using Tris-HCl buffer (20 mM, pH 8) and 50 μL was added to the inhibitor (0.05 μmole) in an Eppendorf tube at room temperature. At a given time point, a sample of 5 μL was removed and diluted with 95 μL MilliQ water. 10 μL Of this sample was injected directly into the analytical HPLC system (see General Experimental), eluting at 1 mL/min with an isocratic ion-pair buffer: 0.17% (m/v) cetrimide and 45% (v/v) phosphate buffer (pH 6.4) in MeOH.

CD38 [3] = molecular target: T1, CD38; assay: Inhibition of CD38-catalyzed cADPR hydrolysis (fluorimetric cycling assay); format: biochemical; settings: for inhibitory activity (IC50) of CD38-mediated cADPR hydrolysis / IC50: 1 mM cADPR, 2 mg/mL CD38, 10 min, pH 4.5, IC50 values >1000 μM are approximate; for IC50: read-out: inhibitory activity (IC50) of CD38-mediated cADPR hydrolysis
Experimental: The inhibition of cADPR hydrolysis by various concentrations of inhibitor (0–1 mM) was determined by incubating 1 mM cADPR with 2 mg/mL of CD38 for 10 min at 20–24uC in 25 mM sodium acetate, pH 4.5. The reaction was stopped by the addition of 150 mM HCl. The precipitated protein was filtered, and the pH was neutralized with Tris base. After diluting the mixture 20-fold, the concentration of the unhydrolyzed cADPR present in the diluted reaction mixture was assayed by the fluorimetric cycling assay as previously described.[46]

[4] = Solubility in the assay medium; format: physicochemical; settings: CD38 assay medium

| SMILES | inhibitory activity on CD38-mediated cADPR hydrolysis, in words (CD38 [3]) | IC50 (CD38 [3]) [µM] | other results |
| --- | --- | --- | --- |
| O=c1c2ncn3c2ncn1[C@@H]1O[C@H](COP(=O)(O)OP(=O)(O)OC[C@H]2O[C@@H]3[C@H](O)[C@@H]2O)[C@@H](O)[C@H]1O [Compound 2, cyclic inosine 5′-diphosphoribose] | – | – | Ca2+ release (T-cells): almost indistinguishably to that induced by cADPR |
| Nc1nc2c(=O)n3cnc2n1[C@@H]1O[C@H](COP(=O)(O)OP(=O)(O)OC[C@H]2O[C@@H]3[C@H](O)[C@@H]2O)[C@@H](O)[C@H]1O [Compound 4, 8-NH2-N1-cIDPR, reference compound] | – | – | IC50 (CD38 [1]): 56 µM |
| O=c1c2nc[nH]c2ncn1[C@@H]1O[C@H](COP(=O)(O)O)[C@@H](O)[C@H]1O [Compound 9, N1-Inosine 5′-monophosphate] | – | – | IC50 (CD38 [1]): 14 ± 5 µM |
| O=c1c2nc(Br)[nH]c2ncn1[C@@H]1O[C@H](COP(=O)(O)O)[C@@H](O)[C@H]1O [Compound 10, N1-(5′-O-Phosphoryl-β-D-ribofuranosyl)-8-bromohypoxanthine] | – | – | IC50 (CD38 [1]): 201 ± 41 µM |
| Nc1nc2c(=O)n([C@@H]3O[C@H](COP(=O)(O)O)[C@@H](O)[C@H]3O)cnc2[nH]1 [Compound 11, N1-(5′-O-Phosphoryl-β-D-ribofuranosyl)-8-aminohypoxanthine] | – | – | IC50 (CD38 [1]): 7.6 ± 0.2 µM; hydrolysis of ligand by shCD38 (RP-HPLC) [2]: hydrolyzed more rapidly than cIDPR (2), but more slowly than 8-NH2-N9-butyl-cIDPR (6); also recorded: hydrolyzed at the N1-ribosyl bond; hydrolysis of ligand by shCD38 (RP-HPLC) ([2]; listed as 8-NH2-N1-IMP): cleaved at high CD38 concentrations |
| O=c1c2nc(Br)n([C@@H]3O[C@H](CO)[C@@H](O)[C@H]3O)c2ncn1[C@@H]1O[C@H](CO)[C@@H](O)[C@H]1O [Compound 14, N1-(β-D-Ribofuranosyl)-8-bromoinosine] | no activity | – | inhibitory activity (IC50) of CD38-mediated cADPR hydrolysis (CD38 [3]): No activity |
| O=c1c2ncn([C@@H]3O[C@H](CO)[C@@H](O)[C@H]3O)c2ncn1[C@@H]1O[C@H](CO)[C@@H](O)[C@H]1O [Compound 15, N1-(β-D-Ribofuranosyl)-inosine] | low mM inhibitory activity | ~7500 | – |
| [N-]=[N+]=Nc1nc2c(=O)n([C@@H]3O[C@H](CO)[C@@H](O)[C@H]3O)cnc2n1[C@@H]1O[C@H](CO)[C@@H](O)[C@H]1O [Compound 16, N1-(β-D-ribofuranosyl)-8-azidoinosine] | no activity | – | inhibitory activity (IC50) of CD38-mediated cADPR hydrolysis (CD38 [3]): No activity |
| Nc1nc2c(=O)n([C@@H]3O[C@H](CO)[C@@H](O)[C@H]3O)cnc2n1[C@@H]1O[C@H](CO)[C@@H](O)[C@H]1O [Compound 17, N1-(β-D-ribofuranosyl)-8-aminoinosine] | low mM inhibitory activity | ~7600 | – |
| O=c1c2nc(Br)n(CCCCO)c2ncn1[C@@H]1O[C@H](CO)[C@@H](O)[C@H]1O [Compound 18, N1-(β-D-Ribofuranosyl)-N9-(4-hydroxybutyl)-8-bromohypoxanthine] | – | – | solubility in the assay medium [4]: insoluble in the assay medium |
| O=c1c2ncn(CCCCO)c2ncn1[C@@H]1O[C@H](CO)[C@@H](O)[C@H]1O [Compound 19, N1-(β-D-Ribofuranosyl)-N9-(4-hydroxybutyl)-hypoxanthine] | – | ~2300 | – |
| [N-]=[N+]=Nc1nc2c(=O)n([C@@H]3O[C@H](CO)[C@@H](O)[C@H]3O)cnc2n1CCCCO [Compound 20, N1-(β-D-Ribofuranosyl)-N9-(4-hydroxybutyl)-8-azidohypoxanthine] | – | ~9500 | – |
| Nc1nc2c(=O)n([C@@H]3O[C@H](CO)[C@@H](O)[C@H]3O)cnc2n1CCCCO [Compound 21, N1-(β-D-Ribofuranosyl)-N9-(4-hydroxybutyl)-8-aminohypoxanthine] | – | ~3300 | – |
| O=c1c2ncn(CCCCO)c2ncn1[C@@H]1O[C@H](COP(=O)(O)O)[C@@H](O)[C@H]1O [Compound 23, N1-(5′-O-Phosphoryl-β-D-ribofuranosyl)-N9-(4-hydroxybutyl)hypoxanthine] | – | 757 | – |
| [N-]=[N+]=Nc1nc2c(=O)n([C@@H]3O[C@H](COP(=O)(O)O)[C@@H](O)[C@H]3O)cnc2n1CCCCO [Compound 24, N1-(5′-O-Phosphoryl-β-D-ribofuranosyl)-N9-(4-hydroxybutyl)-8-azidohypoxanthine] | – | 201 | – |
| Nc1nc2c(=O)n([C@@H]3O[C@H](COP(=O)(O)O)[C@@H](O)[C@H]3O)cnc2n1CCCCO [Compound 25, N1-(5′-O-Phosphoryl-β-D-ribofuranosyl)-N9-(4-hydroxybutyl)-8-aminohypoxanthine] | – | 332 | – |
| O=c1c2nc(Br)[nH]c2ncn1[C@H]1O[C@@H](COP(=O)(O)O)[C@H](O)[C@@H]1O [Compound 26, N1-(5′-O-Phosphoryl-β-L-ribofuranosyl)-8-bromohypoxanthine] | – | 230 ± 9 | – |
| O=c1c2nc[nH]c2ncn1[C@H]1O[C@@H](COP(=O)(O)O)[C@H](O)[C@@H]1O [Compound 27, N1-(5′-O-Phosphoryl-β-L-ribofuranosyl)-hypoxanthine] | – | 460 | fold reduction in activity compared to parent / D-ribose N1-IMP counterpart (CD38 [3]; ratio of IC50 values): 30 fold |
| NS(=O)(=O)OC[C@H]1O[C@@H](n2cnc3[nH]c(Cl)nc3c2=O)[C@H](O)[C@@H]1O [Compound 28, N1-(5′-O-sulfonamide-β-D-ribofuranosyl)-8-chlorohypoxanthine] | neither of the two analogues (28, 29) showed any activity | – | inhibitory activity (IC50) of CD38-mediated cADPR hydrolysis (CD38 [3]): No activity |
| NS(=O)(=O)OC[C@H]1O[C@@H](n2cnc3[nH]cnc3c2=O)[C@H](O)[C@@H]1O [Compound 29, N1-(5′-O-sulfonamide-β-D-ribofuranosyl)-hypoxanthine] | neither of the two analogues (28, 29) showed any activity | – | inhibitory activity (IC50) of CD38-mediated cADPR hydrolysis (CD38 [3]): No activity |
